Measured values taken from patent US7084152B2, “4-phenyl substituted tetrahydroisoquinolines therapeutic use thereof” (AMR Technology, Inc., priority 2000, dated 2006).
Structures can show the parent of a compound that is named as a salt.

Tested on: dopamine transporter protein over the norepinephrine transporter protein
Conditions: ratio of Ki values; cited from earlier work

For `COC(=O)C(c1ccccc1)C1CCCCN1` (stereo not shown) [Methylphenidate, methylphenidate], the “DAT/NET Ki ratio” value is given as 0.1.

Tested on: not given
Conditions: not given

`CN1Cc2c(ccc3ccoc23)C(c2ccc(F)cc2)C1` (stereo not shown) (as salt: hydrochloride) and `Cc1ccc(C2CN(C)Cc3c2ccc2ccoc32)cc1` (single isomer, unassigned) (as salt: hydrochloride) cannot be ordered by melting point: 242 to 257 °C for the first, 240 to 246 °C for the second.

First: CN1Cc2c(ccc3ccoc23)C(c2cc(F)cc(F)c2)C1 (stereo not shown) (as salt: hydrochloride)
Second: Cc1ccc(C2CN(C)Cc3c2ccc2ccoc32)cc1 (single isomer, unassigned) (as salt: maleate)
The melting point of the first is higher: 233 to 236 °C for the first, 190 to 191 °C for the second.

For `CN1Cc2c(ccc3ccoc23)C(c2ccccc2)C1` (single isomer, unassigned), the melting point was 81 to 83 °C.
`CN1Cc2c(ccc3ccoc23)C(c2ccccc2)C1` (single isomer, unassigned) (as salt: maleate) gave a melting point of 165 to 168 °C.
